Reference: publication PMC3737437, “The malQ gene is essential for starch metabolism in Streptococcus mutans” (Journal of Oral Microbiology, 2013)

Target: T1, GlgP (Streptococcus mutans, UniProt Q8DT31)
T1 construct: gene overlapping malQ by 29 nt, not the second phosphorylase phsG
T1 sequence (Q8DT31 1-758): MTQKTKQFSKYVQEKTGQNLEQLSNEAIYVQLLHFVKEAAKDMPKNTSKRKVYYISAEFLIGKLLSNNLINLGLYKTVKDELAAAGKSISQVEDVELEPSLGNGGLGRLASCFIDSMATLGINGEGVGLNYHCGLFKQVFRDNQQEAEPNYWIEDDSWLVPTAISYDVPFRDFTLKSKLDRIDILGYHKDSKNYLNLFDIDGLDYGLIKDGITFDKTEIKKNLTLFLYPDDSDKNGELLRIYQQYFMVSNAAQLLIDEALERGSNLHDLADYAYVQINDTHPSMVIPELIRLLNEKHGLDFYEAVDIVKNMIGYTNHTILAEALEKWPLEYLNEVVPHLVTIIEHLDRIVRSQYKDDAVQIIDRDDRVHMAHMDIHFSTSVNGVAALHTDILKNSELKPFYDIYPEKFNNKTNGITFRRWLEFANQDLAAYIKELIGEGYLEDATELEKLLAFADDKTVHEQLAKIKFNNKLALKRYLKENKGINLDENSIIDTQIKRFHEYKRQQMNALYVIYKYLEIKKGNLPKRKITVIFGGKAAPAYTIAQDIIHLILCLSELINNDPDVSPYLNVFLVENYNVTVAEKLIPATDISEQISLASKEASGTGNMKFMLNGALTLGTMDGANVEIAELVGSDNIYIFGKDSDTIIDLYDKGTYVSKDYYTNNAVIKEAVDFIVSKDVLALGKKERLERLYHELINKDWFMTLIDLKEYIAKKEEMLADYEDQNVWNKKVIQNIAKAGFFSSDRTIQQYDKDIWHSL
Assay: phosphorylase assay, phosphoglucomutase / glucose-6-phosphate dehydrogenase-NADP end-point at […] nm
Type: biochemical
Conditions: formed from 1% maltodextrin or 0.8% amylodextrin, 50 mM potassium phosphate pH 7, 0.5 mM MgCl2, 37 °C, 10 min

## O=P(O)(O)O[C@H]1O[C@H](CO)[C@@H](O)[C@H](O)[C@H]1O [glucose-1-phosphate]
  phosphorylase assay, phosphoglucomutase / glucose-6-phosphate dehydrogenase-NADP: generated glucose-1-phosphate from maltodextrin and amylodextrin
